Structures are written as SMILES.

The first assay deals with primary CLL cells. Put plainly: Cytotoxicity, TMRE flow cytometry viability, primary CLL cells (Example II.1). The assay is classed as cell-based. Particulars: Homo sapiens, CLL cell, 6 hours, TMRE positive cells normalized to control, ratio to PF670462, <1 = higher cytotoxicity than PF670462, read-out: Viability of cells, Compound of formula I (100 μM), relative to PF670462 (100 μM), CLL primary cells. How it is done:
(§1) The leukemia and lymphoma-derived cell lines [MEC-1 cell line (derived from chronic lymphocytic leukemia—CLL), Nalm-16 (acute lymphocytic leukemia—ALL), K562 (chronic myeloid leukemia—CML), HL-60 (acute myeloid leukemia—AML), Maver-1 and Mino (mantle cell lymphoma—MCL), BL-41 (Burkitt lymphoma—BL), WSU-NHL (follicular lymphoma—FL), SUDHL (diffuse large B-cell lymphoma—DLBCL)], primary CLL cells and nonmalignant control primary cells were cultured in suspension in flasks under the following conditions: RPMI 1640 medium (Hyclone) supplemented with 10% fetal bovine serum (FBS, Gibco) and 1% penicillin/streptomycin (Life Technologies), 37° C., 5% CO2 and 95% relative humidity, with optimal culture cell density 5×10^6 cells/mL in case of primary cells and 0.5-1×10^6 cells/mL in case of cell lines. The adherent cell lines [A375 (derived from malignant melanoma), MDA-MB-231 and MCF-7 (breast cancer), MIA-PA-CA and PANC1 (pancreatic cancer), PC3 (prostate cancer), OVCAR4 (ovarian cancer) and HEPG2 (hepatocellular carcinoma)] were cultured on plates under the same conditions using RPMI1640 or DMEM medium (Gibco) according to instructions provided by the distributor (DSMZ/ATCC).
(§2) Cytotoxicity of compounds of formula I was tested in two models representative for leukemia (primary CLL cells) and lymphoma (Maver-1 cells). The primary CLL cells and Maver-1 cells (MCL-derived) were incubated with inhibitors at 100 μM concentration or corresponding amount of solvent (DMSO, Sigma Aldrich) as 0.1×10^6 cells/200 μl per well in a 96-well plate. Experiments were performed in technical duplicates. Viability of cells was assessed after 6 hours in case of primary CLL cells and after 24 hours in case of Maver-1 cells.
(§3) Apoptosis-induced reduction of mitochondrial potential is detected as lower TMRE fluorescence. […] Relative values are presented, showing ratio to the effect of PF670462 (as the closest prior art). Relative value <1 indicates a higher cytotoxicity than PF670462.
By viability is commonly meant the share of living cells, or the viability signal relative to a control. For the molecule `Fc1cccc(-c2ncn(C3CCCCC3)c2-c2ccnc3[nH]ccc23)c1` [Preparative Example 1, 4-(1-cyclohexyl-4-(3-fluorophenyl)-1H-imidazol-5-yl)-1H-pyrrolo[2,3-b]pyridine], the viability at 100 µM amounted to 18%.
With `Fc1ccccc1-c1ncn(C2CCCCC2)c1-c1ccnc2[nH]ccc12` [Preparative Example 2, 4-(1-cyclohexyl-4-(2-fluorophenyl)-1H-imidazol-5-yl)-1H-pyrrolo[2,3-b]pyridine], the viability at 100 µM was determined as 37%.
The same measure, in the same setting: then `Fc1ccc(-c2ncn(CCN3CCOCC3)c2-c2ccnc3[nH]ccc23)cc1` [Preparative Example 12, 4-(2-(4-(4-fluorophenyl)-5-(1H-pyrrolo[2,3-b]pyridin-4-yl)-1H-imidazol-1-yl)ethyl)morpholine], with 80%; and `Fc1ccc(-c2ncn(C3CCOCC3)c2-c2ccnc3[nH]ccc23)cc1` [Preparative Example 13, 4-(4-(4-fluorophenyl)-1-(tetrahydro-2H-pyran-4-yl)-1H-imidazol-5-yl)-1H-pyrrolo[2,3-b]pyridine], with 47%.
Consider `CC(C)CCn1cnc(-c2ccc(F)cc2)c1-c1ccnc2[nH]ccc12` [Preparative Example 15, 4-(4-(4-fluorophenyl)-1-isopentyl-1H-imidazol-5-yl)-1H-pyrrolo[2,3-b]pyridine], for which the viability at 100 µM was found to be 13%.
On the same count and under the same terms, the value for `Fc1ccc(-c2ncn(C3CCOC3)c2-c2ccnc3[nH]ccc23)cc1` (stereo not drawn) [Preparative Example 16, 4-(4-(4-fluorophenyl)-1-(tetrahydrofuran-3-yl)-1H-imidazol-5-yl)-1H-pyrrolo[2,3-b]pyridine] was 67%; that for `Fc1ccc(-c2ncn(C3CCC3)c2-c2ccnc3[nH]ccc23)cc1` [Preparative Example 17, 4-(1-cyclobutyl-4-(4-fluorophenyl)-1H-imidazol-5-yl)-1H-pyrrolo[2,3-b]pyridine] was 52%.
For `Fc1ccc(-c2ncn(C3CCCC3)c2-c2ccnc3[nH]ccc23)cc1` [Preparative Example 18, 4-(1-cyclopentyl-4-(4-fluorophenyl)-1H-imidazol-5-yl)-1H-pyrrolo[2,3-b]pyridine], the viability at 100 µM was determined as 33%.
Consider `CC(C)OCCn1cnc(-c2ccc(F)cc2)c1-c1ccnc2[nH]ccc12` [Preparative Example 20, 4-(4-(4-fluorophenyl)-1-(2-isopropoxyethyl)-1H-imidazol-5-yl)-1H-pyrrolo[2,3-b]pyridine], for which the viability at 100 µM was found to be 68%.
Still for that read-out and setting: the value for `CN(C)CCn1cnc(-c2ccc(F)cc2)c1-c1ccnc2[nH]ccc12` [Preparative Example 21] was 72%.
On the same count and under the same terms, the value for `Cn1cnc(-c2ccc(F)cc2)c1-c1ccnc2[nH]ccc12` [Preparative Example 25] was 81%.
Regarding `CO[C@H]1CC[C@H](n2cnc(-c3ccc(F)cc3)c2-c2ccnc3[nH]ccc23)CC1` [Preparative Example 28, 4-(4-(4-fluorophenyl)-1-(trans-4-methoxycyclohexyl)-1H-imidazol-5-yl)-1H-pyrrolo[2,3-b]pyridine], the viability at 100 µM was 67%.
For the molecule `C=C(C)Cn1cnc(-c2ccc(F)cc2)c1-c1ccnc2[nH]ccc12` [Preparative Example 30, 4-(4-(4-fluorophenyl)-1-(2-methylallyl)-1H-imidazol-5-yl)-1H-pyrrolo[2,3-b]pyridine], the viability at 100 µM was 69%.
On the same count and under the same terms, then `O[C@H]1CC[C@@H](n2cnc(-c3ccc(F)cc3)c2-c2ccnc3[nH]ccc23)CC1` [Preparative Example 31], with 78%; and `O[C@H]1CC[C@H](n2cnc(-c3ccc(F)cc3)c2-c2ccnc3[nH]ccc23)CC1` [Preparative Example 32, trans-4-(4-(4-fluorophenyl)-5-(1H-pyrrolo[2,3-b]pyridin-4-yl)-1H-imidazol-1-yl)cyclohexan-1-ol], with 67%; and `c1cncc(-c2ncn(C3CCCCC3)c2-c2ccnc3[nH]ccc23)c1` [Preparative Example 44], with 81%.
As for `CC(=O)N1CCC(n2cnc(-c3ccc(F)cc3)c2-c2ccnc3[nH]ccc23)CC1` [Preparative Example 68, 1-(4-(4-(4-fluorophenyl)-5-(1H-pyrrolo[2,3-b]pyridin-4-yl)-1H-imidazol-1-yl)piperidin-1-yl)ethan-1-one], the viability at 100 µM amounted to 81%.
Take `CC(=O)N[C@H]1CC[C@H](n2cnc(-c3ccc(F)cc3)c2-c2ccnc3[nH]ccc23)CC1` [Preparative Example 78, N-(trans-4-(4-(4-fluorophenyl)-5-(1H-pyrrolo[2,3-b]pyridin-4-yl)-1H-imidazol-1-yl)cyclohexyl)acetamide]: the viability at 100 µM came out at 87%.
As for `CS(=O)(=O)N[C@H]1CC[C@H](n2cnc(-c3ccc(F)cc3)c2-c2ccnc3[nH]ccc23)CC1` [Preparative Example 79, N-(trans-4-(4-(4-fluorophenyl)-5-(1H-pyrrolo[2,3-b]pyridin-4-yl)-1H-imidazol-1-yl)cyclohexyl)methanesulfonamide], the viability at 100 µM was 86%.
For the molecule `Fc1ccc(-c2ncn(Cc3ccncc3)c2-c2ccnc3[nH]ccc23)cc1` [Preparative Example 83, 4-(4-(4-fluorophenyl)-1-(pyridin-4-ylmethyl)-1H-imidazol-5-yl)-1H-pyrrolo[2,3-b]pyridine], the viability at 100 µM turned out to be 78%.
Consider `Fc1ccc(-c2ncn(C34CCN(CC3)C4)c2-c2ccnc3[nH]ccc23)cc1` [Preparative Example 86, 4-(1-((1r,4r)-1-azabicyclo[2.2.1]heptan-4-yl)-4-(4-fluorophenyl)-1H-imidazol-5-yl)-1H-pyrrolo[2,3-b]pyridine], for which the viability at 100 µM was 76%.
The same measure, in the same setting: then `CN1CCC(O)(Cn2cnc(-c3ccc(F)cc3)c2-c2ccnc3[nH]ccc23)CC1` [Preparative Example 119, 4-((4-(4-fluorophenyl)-5-(1H-pyrrolo[2,3-b]pyridin-4-yl)-1H-imidazol-1-yl)methyl)-1-methylpiperidin-4-ol], with 87%.
As to `Fc1ccc(-c2ncn(Cc3cnsc3)c2-c2ccnc3[nH]ccc23)cc1` [Preparative Example 130, 4-((4-(4-fluorophenyl)-5-(1H-pyrrolo[2,3-b]pyridin-4-yl)-1H-imidazol-1-yl)methyl)isothiazole], the viability at 100 µM turned out to be 89%.
Take `Cn1ccc(Cn2cnc(-c3ccc(F)c(Cl)c3)c2-c2ccnc3[nH]ccc23)n1` [Preparative Example 143, 4-(4-(3-chloro-4-fluorophenyl)-1-((1-methyl-1H-pyrazol-3-yl)methyl)-1H-imidazol-5-yl)-1H-pyrrolo[2,3-b]pyridine]: the viability at 100 µM was 66%.
On the same count and under the same terms, then `O[C@H]1CCC[C@H](n2cnc(-c3ccc(F)cc3)c2-c2ccnc3[nH]ccc23)C1` [Preparative Example 158, (1S,3S)-3-(4-(4-fluorophenyl)-5-(1H-pyrrolo[2,3-b]pyridin-4-yl)-1H-imidazol-1-yl)cyclohexan-1-ol], with 76%.

The next assay has as its system Maver-1 cells (mantle cell lymphoma). Put plainly: Cytotoxicity, TMRE flow cytometry viability, Maver-1 cells (Example II.1). The following applies: Homo sapiens, Maver1, 24 hours, TMRE positive cells normalized to control, ratio to PF670462, <1 = higher cytotoxicity than PF670462, read-out: Viability of cells, Compound of formula I (100 μM), relative to PF670462 (100 μM), Maver-1 cells (mantle cell lymphoma). The format is cell-based. How it is done:
as §1, §2, §3
(In flow cytometry, cells or beads pass a laser one at a time.)
For `Fc1cccc(-c2ncn(C3CCCCC3)c2-c2ccnc3[nH]ccc23)c1` [Preparative Example 1, 4-(1-cyclohexyl-4-(3-fluorophenyl)-1H-imidazol-5-yl)-1H-pyrrolo[2,3-b]pyridine], the viability at 100 µM is 6%.
In the case of `Fc1ccccc1-c1ncn(C2CCCCC2)c1-c1ccnc2[nH]ccc12` [Preparative Example 2, 4-(1-cyclohexyl-4-(2-fluorophenyl)-1H-imidazol-5-yl)-1H-pyrrolo[2,3-b]pyridine], the viability at 100 µM was 32%.
As to `OC1(Cn2cnc(-c3ccc(F)cc3)c2-c2ccnc3[nH]ccc23)CCC1` [Preparative Example 91, 1-((4-(4-fluorophenyl)-5-(1H-pyrrolo[2,3-b]pyridin-4-yl)-1H-imidazol-1-yl)methyl)cyclobutan-1-ol], the viability at 100 µM is 69%.
Regarding `Cn1cc(Cn2cnc(-c3ccc(F)cc3)c2-c2ccnc3[nH]ccc23)cn1` [Preparative Example 93], the viability at 100 µM was 75%.
Turning to `Fc1ccc(-c2ncn(Cc3cscn3)c2-c2ccnc3[nH]ccc23)cc1` [Preparative Example 127, 4-((4-(4-fluorophenyl)-5-(1H-pyrrolo[2,3-b]pyridin-4-yl)-1H-imidazol-1-yl)methyl)thiazole], the viability at 100 µM came to 72%.
On to `CC(c1cnn(C)c1)n1cnc(-c2ccc(F)cc2)c1-c1ccnc2[nH]ccc12` (stereo not drawn) [Preparative Example 145], for which the viability at 100 µM was found to be 42%.
As to `Cc1ncc(Cn2cnc(-c3ccc(F)cc3)c2-c2ccnc3[nH]ccc23)s1` [Preparative Example 152, 5-((4-(4-fluorophenyl)-5-(1H-pyrrolo[2,3-b]pyridin-4-yl)-1H-imidazol-1-yl)methyl)-2-methylthiazole], the viability at 100 µM was 62%.
Turning to `Fc1ccc(-c2ncn(Cc3ccccc3)c2-c2ccnc3[nH]ccc23)nc1` [Preparative Example 184, 4-(1-benzyl-4-(5-fluoropyridin-2-yl)-1H-imidazol-5-yl)-1H-pyrrolo[2,3-b]pyridine], the viability at 100 µM is 57%.

(Values after US11498920B2, “4-(1H-imidazol-5-yl)-1H-pyrrolo[2, 3-b] pyridines for use in the treatment of leukaemias, lymphomas and solid tumors” (MASARYKOVA UNIVERZITA, priority 2018, dated 2022).)
